Here are results for four molecules from article PMC4179164, “Ophiobolin A from Bipolaris oryzae Perturbs Motility and Membrane Integrities of Porcine Sperm and Induces Cell Death on Mammalian Somatic Cell Lines” (Toxins, 2014).

Values after ≈ are worked out from the molar mass of the structure shown.

Data set [1] concerns boar spermatozoa. The conditions noted are these: ref 4 (alamethicin, trilongin), 5 (acrebol), 6 (enniatin B), cited from earlier work.
In data set [2] the test system is boar spermatozoa. The settings on record: ref 4 (alamethicin, trilongin), 5 (acrebol), 6 (enniatin B); cited from earlier work.
Data set [3] relates to boar spermatozoa. The settings on record: ref 4 (alamethicin, trilongin), 5 (acrebol), 6 (enniatin B); cited from earlier work. This is another data set of the same source.
In data set [4] the test system is boar spermatozoa. The settings on record: ref 4 (alamethicin, trilongin), 5 (acrebol), 6 (enniatin B); cited from earlier work. This is another data set of the same source.
Data set [5] concerns porcine kidney (PK-15) cells. The settings on record: ref 4 (alamethicin, trilongin), 5 (acrebol), 6 (enniatin B); cited from earlier work.
Data set [6] deals with boar spermatozoa. The settings on record: ref 4 (alamethicin), 6 (enniatin B); cited from earlier work.
A short description of data set [7]: Mammalian somatic cell toxicity assay calibration (cell line not stated). The data set is classed as cell-based. The settings on record: 10 parallel tests, SD ± 3.4, cell line not stated. The procedure: Cytotoxicity against somatic cells was tested with feline fetus lung cells (FFL) cultivated as described by Andersson et al. and murine neuroblastoma cells (MNA) as described by Kulonen et al. as well as porcine kidney tubular epithelial cell line (PK-15), cultured as reported earlier. All somatic cell lines were maintained in an atmosphere of 95% air, 5% CO2 and 95% relative humidity at 37 °C on RPMI 1640 (complete medium) in a cell culture cabinet (Heracell 150i; Thermo Fisher Scientific, Vantaa, Finland). The detached cells were seeded onto 96 well microtiter plates and exposed to the purified OPA, the final concentration of which ranged from 48.8 ng mL^−1 to 25 μg mL^−1 containing 10 levels in methanol. After incubating the plates for one day at 37 °C, inhibition of cell proliferation was inspected in phase contrast microscope. EC100 for inhibition of proliferation was easy to observe as absence of cell monolayer and absence of intact cells in the well. EC0 was also easy to observe as an intact cell monolayer indistinguishable from the control. In microscope the determining of EC50 was more difficult. […] Then, the plates were analyzed by a microtiter plate reader (Fluoroskan Ascent, Thermo Scientific, Vantaa, Finland) at the excitation and emission wavelengths of 544 nm and 590 nm, respectively. […]

The subject of data set [8] is boar spermatozoa. As to the kind of experiment: Cell membrane permeability assay on motile sperm cells (PI staining). Format: cell-based. The conditions noted are these: boar spermatozoa, motile at 37 °C, 2 h; read-out: Toxic endpoint EC50, Permeability to PI on motile cells. The procedure:
To test the effect of OPA exposure on sperm cells in physiological conditions (swimming at 37 °C) the plasma membrane disruption on motile sperm cells was measured with the viability PI stain, where the loss of plasma membrane integrity was detected as appearance of red color stained nuclei in the damaged cells. In this assay, sperm cells were exposed to OPA at 37 °C and motility of the exposed sperm cells was induced and maintained for 2 h.
Cell membrane permeability assay on motile sperm cells was inspected by staining with PI (Molecular Probes, Eugene, OR, USA) in sperm cells induced to swim by shaking at 37 °C. One hundred and fifty μL aliquots of commercial extended boar semen with a density of 27 × 10^6 sperms mL^−1 were pipetted into microtiter plate wells and serially diluted methanolic solution of OPA were added in the concentration range of 200 ng mL^−1 to 4 μg mL^−1 including 6 levels and an additional methanol blank, and pre-incubated for 2 h on orbital shaker (Innova 5000 new Brunswick Scientific, Enfield, CT, USA) (160 rpm) at 37 °C. Four parallel measurements were done for each dilution. One ml PI solution (1 mg mL^−1 in Dulbeco’s phosphate buffered saline) was mixed with 3 mL of […] Dulbeco’s phosphate buffered saline. One hundred and fifty μL of this stain mixture was added to 150 μL of exposed boar semen. This suspension was incubated for 15 min at 37 °C in dark and measured using a microplate reader (Fluoroskan Ascent, Thermo Scientific, Vantaa, Finland) at excitation and emission wavelengths of 544 nm and 600 nm, respectively. For observing plasma membrane damage by PI staining frozen-thawed semen was used as a positive control (for mortality of 100%) representing the maximal fluorescence emitted by the cells permeable to PI and Dulbeco’s phosphate buffered saline was applied as background control (blank). Loss of viability in the sample was calculated as described in Alm et al.. The frozen sample represented 100% loss of viability. The assay was calibrated with triclosan (Sigma Chemical Co., St. Louis, MO, USA), in 5 parallel tests, the EC50 was 2 μg mL^−1 (SD ± 0.6). Cell membrane permeability assay on static sperm cells at room temperature was carried out by viability staining with PI and calcein-AM (Molecular Probes, Eugene, OR, USA) according to Hoornstra et al. in same concentration range and levels described above.

For data set [9], the system named is boar spermatozoa. As to the kind of experiment: Sperm motility inhibition assay (progressive and rapid motility). Format: cell-based. The conditions noted are these: 24 h, boar spermatozoa, 24 h exposure at room temperature, read-out: Toxic endpoint EC50, Motility inhibition (24 h). The method, then:
Furthermore, their physiological characters including their motility are influenced mainly by membrane potentials and ion fluxes. Thus, the change of sperm motility is able to sensitively indicate the substances causing mitochondrial membrane depolarization even at sublethal doses, which is undetectable with other cell lines. Motility of the spermatozoa was judged after exposure of 30 min and 24 h at room temperature with minor modification of a previously described method.
The sperm motility inhibition assay was done as reported by Andersson et al.. Commercial boar semen obtained from Figen Oy Finland extended in MR-A (Kubus, S.A., Madrid, Spain) containing 27 × 10^6 spermatozoa·mL^−1 was used. The purified OPA was diluted by serial dilutions in methanol obtaining two ranges of concentrations with 4-4 levels from 2500 μg mL^−1 to 250.0 μg mL^−1 and from 50 μg mL^−1 to 5.0 μg mL^−1, for short and long time exposures, respectively. Twenty μL of each dilution was administered to 2 mL of MR-A-diluted boar semen resulting approximately 100 times dilution of the original stock solutions; 20 μL of methanol was added to spermatozoa in the same way as a blank assay. The samples were incubated for 30 min and 24 h at room temperature for short and long term exposure assays, respectively. After exposure, motility was induced in the sperm cells by incubation in 37 °C for 5 min and shaking to provide the sperm cells with oxygen. […]
The above described subjective motility assay was calibrated with an automatic Hamilton Thorne sperm motility analyzer (HTM-S, ver. 7.2; Hamilton-Thorn Research, Danvers, MA, USA). […] Thus the protocol for assessing sperm tail beating as a measure of motility inhibition gave 99% similarity to measurements of the proportion of rapidly motile spermatozoa done with Hamilton Thorne sperm analyzer (HTM-S, ver. 7.2; Hamilton-Thorn Research, Danvers, MA, USA) Toxicity was expressed as the endpoint concentration of the OPA solution, where the progressive and rapid motility of the sperm cells were <50% of the vehicle exposed sperm cells. […]

Acrebol: in the data set with boar spermatozoa [1], the “Toxic endpoint EC50, Motility inhibition (30 min)” value was 2 µg/mL and the “Toxic endpoint EC50, Motility inhibition (24 h)” value was 0.1 µg/mL. The “Toxic endpoint EC50, Shivering tail beating induction” value with boar spermatozoa [2] is recorded as “None”. In the data set with boar spermatozoa [3], the “Toxic endpoint EC50, Dissipation of ΔΨm” value was 0.8 µg/mL. The “Toxic endpoint EC50, Permeability to PI on static cells” value (shortened to “Toxic endpoint EC50 … on static cells”) in the data set on boar spermatozoa [4] is greater than 4 µg/mL. Also, in data set [5], the “Toxic endpoint EC50, Cytotoxicity, PK-15 cells” value was no less than 10 µg/mL.
For the molecule `CC(C)[C@H]1C(=O)O[C@H](C(C)C)C(=O)N(C)[C@@H](C(C)C)C(=O)O[C@H](C(C)C)C(=O)N(C)[C@@H](C(C)C)C(=O)O[C@H](C(C)C)C(=O)N1C` [Enniatin B], in the data set on boar spermatozoa [1], the “Toxic endpoint EC50, Motility inhibition (30 min)” value was greater than 10 µg/mL and the “Toxic endpoint EC50, Motility inhibition (24 h)” value is 5 µg/mL. In the data set with boar spermatozoa [2], the “Toxic endpoint EC50, Shivering tail beating induction” value is “None”. Besides, the “Toxic endpoint EC50, Dissipation of ΔΨm” value with boar spermatozoa [3] is 5 µg/mL. Moreover, the “Toxic endpoint EC50 … on static cells” value with boar spermatozoa [4] was greater than 50 µg/mL. In addition, the “Toxic endpoint EC50, Permeability to PI on motile cells” value with boar spermatozoa [6] is greater than 20 µg/mL. In data set [5], the “Toxic endpoint EC50, Cytotoxicity, PK-15 cells” value was 60 µg/mL.
Consider Alamethicin, for which, in the data set on boar spermatozoa [1], the “Toxic endpoint EC50, Motility inhibition (30 min)” value is 1 µg/mL and the “Toxic endpoint EC50, Motility inhibition (24 h)” value is 0.2 µg/mL. Also, the “Toxic endpoint EC50, Shivering tail beating induction” value with boar spermatozoa [2] is listed as “None”. The “Toxic endpoint EC50, Dissipation of ΔΨm” value in the data set on boar spermatozoa [3] is 0.2 µg/mL. Also, the “Toxic endpoint EC50 … on static cells” value in the data set with boar spermatozoa [4] is 0.2 µg/mL. Moreover, in the data set on boar spermatozoa [6], the “Toxic endpoint EC50, Permeability to PI on motile cells” value is no more than 0.5 µg/mL. For the same molecule, in data set [5], the “Toxic endpoint EC50, Cytotoxicity, PK-15 cells” value was 8 µg/mL.
Broadly, the EC50 is the concentration at which the effect is half-maximal. For the molecule `Oc1cc(Cl)ccc1Oc1ccc(Cl)cc1Cl` [triclosan], the midpoint of the response in [7], the EC50 at 3 days, lay at 9.4 µg/mL (≈ 32.5 µM). The EC50 with boar spermatozoa [8] was 2 µg/mL (≈ 6.91 µM); with boar spermatozoa [9] it was 1 µg/mL (≈ 3.45 µM).
